The assay deals with Cannabinoid receptor 1 (Homo sapiens, UniProt P21554). Kind of assay: Antagonist activity at CB1 receptor transfected in CHO cells expressing apoaequorin as a reporter for G-protein-coupled receptor-mediated calcium signaling by bioluminescence assay. It is filed as functional, cell-based.
Sequence of Cannabinoid receptor 1 (P21554 whole entry): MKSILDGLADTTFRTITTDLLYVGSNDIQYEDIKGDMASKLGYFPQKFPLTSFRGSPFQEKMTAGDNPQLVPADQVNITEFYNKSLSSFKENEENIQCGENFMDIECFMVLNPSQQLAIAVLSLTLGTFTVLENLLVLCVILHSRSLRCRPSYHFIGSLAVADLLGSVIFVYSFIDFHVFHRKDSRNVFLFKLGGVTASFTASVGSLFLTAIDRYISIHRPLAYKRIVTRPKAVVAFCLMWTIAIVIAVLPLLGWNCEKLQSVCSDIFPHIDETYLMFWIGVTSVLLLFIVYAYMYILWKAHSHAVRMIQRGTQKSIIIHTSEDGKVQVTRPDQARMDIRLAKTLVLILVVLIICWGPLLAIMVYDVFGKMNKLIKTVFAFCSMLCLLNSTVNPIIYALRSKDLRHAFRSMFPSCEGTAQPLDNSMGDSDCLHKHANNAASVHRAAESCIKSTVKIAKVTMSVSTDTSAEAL
Turning to `CC=C1CN(C)C2Cc3c([nH]c4ccccc34)C(c3cc4[nH]c5c(c4cc3OC)CCN3CC4CC(CC)C3C5(C(=O)OC)C4)CC1C2C(=O)OC` (stereo not drawn) [VOACAMINE], the IC50 stood at 0.041 µM.
On to `CC[C@H]1C[C@@H]2C[C@@]3(C(=O)OC)c4[nH]c5ccc(OC)cc5c4[C@@H]4CN([C@@H]13)[C@H]2O4`, for which the IC50 is 0.199 µM.
In the case of `CC[C@H]1C[C@@H]2C[C@@]3(C(=O)OC)c4[nH]c5ccc(OC)cc5c4[C@H]4O[C@@H]2N([C@@H]4O)[C@@H]13`, the half-inhibitory concentration (IC50) turned out to be 0.141 µM.

The record behind these values is ChEMBL document CHEMBL1759887, “Discovery of indole alkaloids with cannabinoid CB1 receptor antagonistic activity” (Bioorg Med Chem Lett, 2011).
